Source: the supplement of paper PMC4862054

Key:
Settings in all cases: incubation time: 72 h
HCC1143 [1] = test: normalised response (% of control), CellTox Green; higher = less cell death (100 = DMSO, 0 = benzethonium chloride kill control)
Summary of the method: (§1)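 Plates were normalised with 0.1 % DMSO as 100 and a positive kill control as 0. Breast cancer cell lines in 20 µl suspension had been seeded into 384-well plates with compound at 5 concentrations in 10-fold steps over a compound-specific 10,000-fold range, incubated 72 h, and read for CellTox Green fluorescence (485/520 nm) followed by CellTiter-Glo luminescence. Each value is the normalised signal at a single concentration.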

CAL-51 [2] = test: as above
Summary of the method: as §1

MDA-MB-468 [3] = test: as above
Summary of the method: as §1

Hs578T [4] = test: as above
Summary of the method: as §1

CAL-148 [5] = test: as above
Summary of the method: as §1

BT-474 [6] = test: as above
Summary of the method: as §1

DU-4475 [7] = test: as above
Summary of the method: as §1

MFM-223 [8] = test: as above
Summary of the method: as §1

MDA-MB-436 [9] = test: as above
Summary of the method: as §1

CAL-120 [10] = test: as above
Summary of the method: as §1

MDA-MB-231 [11] = test: as above
Summary of the method: as §1

HCC1599 [12] = test: as above
Summary of the method: as §1

MCF-10A [13] = test: as above
Summary of the method: as §1

HDQ-P1 [14] = test: as above
Summary of the method: as §1

CAL-85-1 [15] = test: as above
Summary of the method: as §1

MDA-MB-453 [16] = test: as above
Summary of the method: as §1

BT-549 [17] = test: as above
Summary of the method: as §1

HCC1937 [18] = test: as above
Summary of the method: as §1

HCC1143 [19] = test: normalised response (% of control), CellTiter-Glo; higher = more viable cells (100 = DMSO, 0 = benzethonium chloride kill control)
Summary of the method: as §1

CAL-51 [20] = test: as above
Summary of the method: as §1

MDA-MB-468 [21] = test: as above
Summary of the method: as §1

Hs578T [22] = test: as above
Summary of the method: as §1

CAL-148 [23] = test: as above
Summary of the method: as §1

BT-474 [24] = test: as above
Summary of the method: as §1

DU-4475 [25] = test: as above
Summary of the method: as §1

SK-BR-3 = test: as above
Summary of the method: as §1

MFM-223 [26] = test: as above
Summary of the method: as §1

MDA-MB-436 [27] = test: as above
Summary of the method: as §1

CAL-120 [28] = test: as above
Summary of the method: as §1

MDA-MB-231 [29] = test: as above
Summary of the method: as §1

HCC1599 [30] = test: as above
Summary of the method: as §1

MCF-10A [31] = test: as above
Summary of the method: as §1

HDQ-P1 [32] = test: as above
Summary of the method: as §1

CAL-85-1 [33] = test: as above
Summary of the method: as §1

MDA-MB-453 [34] = test: as above
Summary of the method: as §1

BT-549 [35] = test: as above
Summary of the method: as §1

HCC1937 [36] = test: as above
Summary of the method: as §1

| Structure (SMILES) | normalised response (HCC1143 [1]) [%] | normalised response (CAL-51 [2]) [%] | normalised response (MDA-MB-468 [3]) [%] | normalised response (Hs578T [4]) [%] | normalised response (CAL-148 [5]) [%] | normalised response (BT-474 [6]) [%] | normalised response (DU-4475 [7]) [%] | normalised response (MFM-223 [8]) [%] | normalised response (MDA-MB-436 [9]) [%] | normalised response (CAL-120 [10]) [%] | normalised response (MDA-MB-231 [11]) [%] | normalised response (HCC1599 [12]) [%] | normalised response (MCF-10A [13]) [%] | normalised response (HDQ-P1 [14]) [%] | normalised response (CAL-85-1 [15]) [%] | normalised response (MDA-MB-453 [16]) [%] | normalised response (BT-549 [17]) [%] | normalised response (HCC1937 [18]) [%] | normalised response (HCC1143 [19]) [%] | normalised response (CAL-51 [20]) [%] | normalised response (MDA-MB-468 [21]) [%] | normalised response (Hs578T [22]) [%] | normalised response (CAL-148 [23]) [%] | normalised response (BT-474 [24]) [%] | normalised response (DU-4475 [25]) [%] | normalised response (SK-BR-3) [%] | normalised response (MFM-223 [26]) [%] | normalised response (MDA-MB-436 [27]) [%] | normalised response (CAL-120 [28]) [%] | normalised response (MDA-MB-231 [29]) [%] | normalised response (HCC1599 [30]) [%] | normalised response (MCF-10A [31]) [%] | normalised response (HDQ-P1 [32]) [%] | normalised response (CAL-85-1 [33]) [%] | normalised response (MDA-MB-453 [34]) [%] | normalised response (BT-549 [35]) [%] | normalised response (HCC1937 [36]) [%] |
| --- | --- | --- | --- | --- | --- | --- | --- | --- | --- | --- | --- | --- | --- | --- | --- | --- | --- | --- | --- | --- | --- | --- | --- | --- | --- | --- | --- | --- | --- | --- | --- | --- | --- | --- | --- | --- | --- |
| COc1c(C)cnc(Cn2cnc3c(Cl)nc(N)nc32)c1C [BIIB021] (100 nM) | 107 | 122 | 108 | 107 | 62.7 | 95.7 | 103 | 97 | 82 | 101 | 107 | 109 | 91.5 | 109 | 78.5 | 98.5 | 114 | 88.4 | 97.9 | 82.7 | 81.6 | 101 | 88.7 | 106 | 101 | 45 | 82.7 | 82.6 | 85.9 | 109 | 85 | 100 | 81.7 | 90.8 | 81.4 | 65.9 | 82.1 |
| COc1ccc(C2=N[C@@H](c3ccc(Cl)cc3)[C@@H](c3ccc(Cl)cc3)N2C(=O)N2CCNC(=O)C2)c(OC(C)C)c1 [Nutlin-3] (100 nM) | 109 | 97.1 | 100 | 101 | 97.2 | 71.6 | 102 | 95.2 | 64 | 102 | 100 | 102 | 103 | 97.3 | 102 | 97.3 | 99 | 87.5 | 105 | 64 | 100 | 103 | 115 | 101 | 104 | 104 | 102 | 102 | 99.5 | 102 | 105 | 96.7 | 99.9 | 92.4 | 108 | 107 | 95.4 |
| COc1cccc2c1C(=O)c1c(O)c3c(c(O)c1C2=O)C[C@@](O)(C(C)=O)C[C@@H]3O[C@H]1C[C@H](N)[C@H](O)[C@H](C)O1 [Daunorubicin] (10 nM) | 104 | 91.5 | 90.3 | 111 | 91.5 | 102 | 103 | 105 | 93.4 | 102 | 76 | 98.9 | 104 | 106 | 98.8 | 107 | 104 | 106 | 97 | 87.2 | 84.2 | 104 | 99.3 | 102 | 106 | 112 | 105 | 99.4 | 103 | 103 | 99.1 | 105 | 96.5 | 100 | 110 | 103 | 93.2 |
| COC(=O)C[C@](O)(CCCC(C)(C)O)C(=O)O[C@@H]1C(OC)=C[C@]23CCCN2CCc2cc4c(cc2[C@H]13)OCO4 [Omacetaxine] (100 nM) | 72.7 | 121 | 113 | 38.3 | 83.4 | 98.3 | 97.5 | 48.9 | 77.6 | 99.4 | 92.3 | 112 | 97.1 | 100 | 10.6 | 110 | 103 | 124 | 44.4 | 19.9 | 15.3 | 28.2 | 40.9 | 74.6 | 4.3 | 44.9 | 55.4 | 20 | 59 | 65 | 24.4 | 61.5 | 31 | 6.28 | 56.4 | 18.8 | 41.1 |
